The values below come from patent US10449348B2, “Devices and methods for enhancing the topical application of a benefit agent” (Johnson & Johnson Consumer Inc., priority 2015, dated 2019).

A short description of this data set: In vitro skin permeation study, Franz diffusion cell, passive diffusion or sonophoresis. The format is in vitro ADME, human. An excerpt: The experimental setup to run sonophoresis (ultrasound) studies with Franz cell diffusion cells consisted of a custom-built universal generator capable of driving ultrasonic transducers in the 20 kHz-2 MHz range with electronic power up to 60 W (Voltage+/−30V, Current: 2 A, duty cycle 50%) with a square waveform. The real power delivered to the transducer depended on the specific experimental conditions and is specified for each experiment. The driving waveform was delivered to the transducer through a coaxial cable having a BNC connector at one end and a custom non-coaxial connector at the transducer end.
The transducer was piezoelectric and had either a disk shaped form (either 20 or 25 mm in diameter) or a rectangular shape 10×20 mm^2). The thickness of the transducer depended on its fundamental frequency being inversely proportional with it. In order to prevent the liquid or the gel from perturbing the electrical connection, each transducer was encapsulated in a plastic case leaving only one side of the transducer exposed to the topical composition. The case was made out of a rigid plastic and the transducers were sealed with silicone adhesive to enable them to oscilalte more or less freely. The case also enabled the electrical connections to be isolated from the topical composition.
For sonophoresis experiments where the ultrasonic wave energy was delivered perpendicular to the skin, disk-shaped transducers were used in the encapsulation setup described above. For the angled ultrasound application the case encapsulating the ultrasonic transducer was assembled in a hinged configuration, enabling angles between 15 and 90 degrees (perpendicular). Note: an angle of 0 degrees would send the ultrasonic wave parallel with the skin surface.
In vitro skin permeation studies on 5% Ibuprofen gel compositions without ultrasound (passive diffusion), or facilitated by the application of ultrasound (sonophoresis), through human cadaver skin were performed as follows:
A skin penetration study evaluated the penetration of ibuprofen through the human skin for the inventive sample prepared as disclosed in Example 1. A commercial ibuprofen gel product, IBULEVE Ibuprofen Gel (by DDD ltd, Watford, Herts, WD18 7JJ, UK) was used as a benchmark, which contains 5% W/W ibuprofen, also IMS (Industrial Methylated Spirits), carbomer, propylene glycol, diethylamine and purified water according to the product label on its package. A well-known Franz diffusion cell method (taught in US20020006418 A1 which is hereby incorporated by reference) was used. […] A magnetic stirrer bar was added in the […]. The liquid receptor was filled with Phosphate-buffered saline (PBS) solution. Air bubbles in the […] were removed. The system was thermostated at 37° C. above a magnetic stirrer to ensure the homogeneity of the liquid receptor during the experiment. A human cadaver skin sample from a commercial tissue bank (Ohio Valley Tissue and Skin Center, Cincinnati, Ohio, dermatomed to approximately 0.4 mm) was cut to fit the glass diffusion cell and the skin was mounted on the Franz cell.
For the diffusion cells designated to be tested for passive diffusion, a test gel sample of 0.2 ml was applied on the skin surface. For the diffusion cells designated to test for sonophoresis, additional test sample (2-5 ml) was added in order to assure the entire, or at least a large portion, of the ultrasonic transducer tip was immersed by the test gel during the ultrasound treatment. The excess gel was promptly removed from the donor cell after the ultrasound treatment so that the remaining test gel was approximately 0.2 ml.
Ultrasound treatments were carried out with the following test conditions: • a) Conventional ultrasound treatment with 90 degree angle (°) between the ultrasound direction and the skin surface; • b) Angled Ultrasound treatment with less than 90 degree angle between the ultrasound direction and the skin surface. […]

For `CC(C)Cc1ccc(C(C)C(=O)O)cc1` (stereo not shown) [ibuprofen], the permeation enhancement factor result is on record as “approximately 3.0 fold” (15 degree UT sonophoresis vs without ultrasound, 6th hour); “approximately 3.0 fold” (15 degree UT sonophoresis vs without ultrasound, 24th hour); “approximately 2.9 fold” (60 degree UT sonophoresis vs without ultrasound, 6th hour); roughly 2.0 fold (60 degree UT sonophoresis vs without ultrasound, 24th hour); “approximately 2.3 fold” (90 degree UT sonophoresis vs without ultrasound, 6th hour); roughly 2.0 fold (90 degree UT sonophoresis vs without ultrasound, 24th hour). Also, the “ibuprofen permeation through the human skin versus no ultrasound” value is given as “significantly enhanced” (15 degree ultrasound treatment), “significantly enhanced” (45 degree angled sonophoresis), “significantly enhanced” (60 degree angled sonophoresis) and “significantly enhanced” (90 degree ultrasound treatment).
